This note sets out measurements from patent publication US11389395B2, “Encapsulation of microbubbles within the aqueous core of microcapsules” (DREXEL UNIVERSITY, priority 2009, dated 2022).

The nature of series [1]: Microbubble growth on heating above the phospholipid chain melting temperature. It counts as physicochemical. Particulars: microbubbles made at 7° C., heated to 37° C. From the text: Use of a gel-phase lipid is required to prevent gas from escaping the microbubble. […] Indeed, these microbubbles expanded so as to fill the capillary in which they were contained and therefore became nonspherical, taking on the geometry of the capillary itself. […] Such growth may have resulted from simple expansion of individual microbubbles or by inward diffusion of gas.

Series [2] in a line: Survival of microbubbles made at different processing temperatures. It counts as physicochemical. To be noted: formulations included 5 mol % PEG6000MS; for survival of microbubbles, 7° C.: processing temperature 7° C.; for survival of microbubbles, 37° C.: processing temperature 37° C.; for survival of microbubbles, 60° C.: processing temperature 60° C. From the text: Table 1 lists three phospholipid species, along with their gel transition temperatures, and the results of experiments attempting to make stable microbubbles with these species at different temperatures. All microbubble formulations included 5 mol % PEG6000MS.
In all cases in which the processing temperature was below the gel transition temperature, irrespective of the phospholipid identity, microbubble synthesis was feasible. Conversely, microbubble synthesis at temperatures greater than the gel transition temperature was not feasible, regardless of which phospholipid was used.

As to `CCCCCCCCCCCCCC(=O)OC[C@H](COP(=O)([O-])OCC[N+](C)(C)C)OC(=O)CCCCCCCCCCCCC` [DMPC, dimyristoylphosphatidylcholine], the “microbubble growth upon heating” value in series [1] is “grew spontaneously”. In series [2], the “survival of microbubbles, 7° C.” value is reported as “Yes”; the “survival of microbubbles, 37° C.” value is on record as “No”; the “survival of microbubbles, 60° C.” value is given as “No”.
For the compound `CCCCCCCCCCCCCCCCCC(=O)OC[C@H](COP(=O)([O-])OCC[N+](C)(C)C)OC(=O)CCCCCCCCCCCCCCCCC` [DSPC, 1,2-distearoyl-sn-glycero-3-phosphocholine], the “microbubble growth upon heating” value in series [1] is reported as “No such growth was observed”. In series [2], the “survival of microbubbles, 7° C.” value is on record as “Yes”; the “survival of microbubbles, 37° C.” value is given as “Yes”; the “survival of microbubbles, 60° C.” value is on record as “No”.
